Data: US20070281992A1, “COMBINATION OF GYRASE B INHIBITORS AND PROTEIN SYNTHESIS INHIBITORS AND USES THEREOF” (priority 2006, published 2007)
Where two headings read alike, the source gives them in different places.

What was measured:
Assay type in all cases: cell-based
[1] = tested on: Methicillin-Susceptible Staphylococcus aureus Isolates; experiment: MIC assay (NCCLS broth dilution), MSSA clinical isolates; details: Staphylococcus aureus; for MIC: read-out: Minimal Inhibitory Concentration
Procedure: (§1) Antibiotics: novobiocin, tetracycline, minocycline, oxacillin, and vancomycin were all purchased from Sigma-Aldrich. Linezolid was obtained from Pfizer, Inc. Novobiocin/tetracycline and novobiocin/minocycline were tested in a 2.5:1 ratio to mimic the serum levels. (Vavra, J. J., 1967, Development of resistance to novobiocin, tetracycline, and novobiocin-tetracycline combinations in Staphylococcus aureus populations, J. Bacteriol 93(3):801). Compounds were tested across a concentration range consisting of 11 two-fold serial dilutions of test agent.
(§2) Stock solutions were prepared in sterile deionized water; novobiocin stock concentration was 1600 μg/mL and all other drugs stock solutions were prepared at 640 μg/mL. The stock solutions were allowed to sit at room temperature for one hour to auto-sterilize prior to use in the test. All compounds were in solution in water. The control agent was vancomycin hydrochloride, Sigma Chemical Lot # 015K0825.
(§3) The test organisms for the assay were 52 MSSA, 52 MRSA, 8 VISA, 7 VISE, and 3 LRSA isolates. Quality control strains included Staphylococcus aureus 0100 (ATCC 29213) and Enterococcus faecalis (ATCC 29212).
(§4) The MIC assay was performed according to published NCCLS guidelines. (National Committee for Clinical Laboratory Standards, Methods for Dilution Antimicrobial Susceptibility Tests for Bacteria that Grow Aerobically; Approved Standard-Sixth Edition, NCCLS Document M7-A6 [ISBN 1-56238-486-4], NCCLS, 940 West Valley Road, Suite 1400, Wayne, Pa. 19087-1898 USA, 2003). The test medium was Mueller Hinton II Broth for all organisms.

[2] = tested on: Vancomycin-intermediate Staphylococcus epidermidis Isolates; experiment: MIC assay (NCCLS broth dilution), VISE isolates; details: Staphylococcus epidermidis; for MIC: read-out: Minimal Inhibitory Concentration
Procedure: as §1, §2, §3, §4

[3] = tested on: Methicillin-Resistant Staphylococcus aureus Isolates; experiment: MIC assay (NCCLS broth dilution), MRSA clinical isolates; details: Staphylococcus aureus; for MIC: read-out: Minimal Inhibitory Concentration
Procedure: as §1, §2, §3, §4

[4] = tested on: Linezolid-Resistant Staphylococcus aureus Isolates; experiment: MIC assay (NCCLS broth dilution), LRSA isolates; details: Staphylococcus aureus; for MIC: read-out: Minimal Inhibitory Concentration
Procedure: as §1, §2, §3, §4

[5] = tested on: Unconfirmed Vancomycin-intermediate Staphylococcus epidermidis Isolates; experiment: MIC assay (NCCLS broth dilution), unconfirmed VISE isolates; details: for MIC: read-out: Minimal Inhibitory Concentration
Procedure: as §1, §2, §3, §4

[6] = 52 MSSA isolates, combinations at 2.5:1, given as NB/partner
[7] = 52 MRSA isolates, combinations at 2.5:1, given as NB/partner

## CN(C)[C@@H]1C(O)=C(C(N)=O)C(=O)[C@@]2(O)C(O)=C3C(=O)c4c(O)cccc4[C@@](C)(O)[C@H]3C[C@@H]12 [TE, tetracycline]
[1]; MSSA isolate 133, 03MAR06
  MIC: 0.5 µg/mL
[1]; MSSA isolate 134, 03MAR06
  MIC: 0.5 µg/mL
[1]; MSSA isolate 135, 03MAR06
  MIC: 0.5 µg/mL
[1]; MSSA isolate 753, 22FEB06
  MIC: 0.5 µg/mL
[1]; MSSA isolate 754, 22FEB06
  MIC: 0.5 µg/mL
[1]; MSSA isolate 754, 24FEB06
  MIC: 0.5 µg/mL
[1]; MSSA isolate 755, 22FEB06
  MIC: 0.5 µg/mL
[1]; MSSA isolate 756, 03MAR06
  MIC: 0.5 µg/mL
[1]; MSSA isolate 779, 22FEB06
  MIC: 0.5 µg/mL
[1]; MSSA isolate 780, 03MAR06
  MIC: 0.5 µg/mL
[1]; MSSA isolate 781, 03MAR06
  MIC: 0.5 µg/mL
[1]; MSSA isolate 782, 22FEB06
  MIC: 1 µg/mL
[1]; MSSA isolate 783, 22FEB06
  MIC: 0.5 µg/mL
[1]; MSSA isolate 784, 22FEB06
  MIC: 16 µg/mL
[1]; MSSA isolate 785, 22FEB06
  MIC: 0.5 µg/mL
[1]; MSSA isolate 786, 22FEB06
  MIC: 0.5 µg/mL
[1]; MSSA isolate 787, 22FEB06
  MIC: 0.5 µg/mL
[1]; MSSA isolate 788, 22FEB06
  MIC: 0.5 µg/mL
[1]; MSSA isolate 789, 24FEB06
  MIC: 0.5 µg/mL
[1]; MSSA isolate 790, 24FEB06
  MIC: 0.5 µg/mL
[1]; MSSA isolate 791, 24FEB06
  MIC: 0.5 µg/mL
[1]; MSSA isolate 792, 03MAR06
  MIC: 0.5 µg/mL
[1]; MSSA isolate 793, 24FEB06
  MIC: 0.5 µg/mL
[1]; MSSA isolate 794, 24FEB06
  MIC: 0.5 µg/mL
[1]; MSSA isolate 994, 22FEB06
  MIC: 0.5 µg/mL
[1]; MSSA isolate 995, 03MAR06
  MIC: 0.5 µg/mL
[1]; MSSA isolate 996, 22FEB06
  MIC: 0.5 µg/mL
[1]; MSSA isolate 997, 22FEB06
  MIC: 0.5 µg/mL
[1]; MSSA isolate 998, 03MAR06
  MIC: 0.5 µg/mL
[1]; MSSA isolate 999, 22FEB06
  MIC: > 16 µg/mL
[1]; MSSA isolate 1000, 24FEB06
  MIC: 0.5 µg/mL
[1]; MSSA isolate 1001, 24FEB06
  MIC: 0.5 µg/mL
[1]; MSSA isolate 1002, 24FEB06
  MIC: 0.5 µg/mL
[1]; MSSA isolate 1003, 03MAR06
  MIC: 0.5 µg/mL
[1]; MSSA isolate 1005, 24FEB06
  MIC: 0.25 µg/mL
[1]; MSSA isolate 1006, 24FEB06
  MIC: 0.5 µg/mL
[1]; MSSA isolate 1007, 24FEB06
  MIC: 0.5 µg/mL
[1]; MSSA isolate 1008, 24FEB06
  MIC: 0.5 µg/mL
[1]; MSSA isolate 1009, 24FEB06
  MIC: 0.5 µg/mL
[1]; MSSA isolate 1131, 24FEB06
  MIC: 0.5 µg/mL
[1]; MSSA isolate 1132, 03MAR06
  MIC: 0.5 µg/mL
[1]; MSSA isolate 1133, 24FEB06
  MIC: 0.5 µg/mL
[1]; MSSA isolate 1134, 24FEB06
  MIC: 0.5 µg/mL
[1]; MSSA isolate 1654, 03MAR06
  MIC: 0.5 µg/mL
[1]; MSSA isolate 1656, 03MAR06
  MIC: 0.5 µg/mL
[1]; MSSA isolate 1662, 03MAR06
  MIC: 0.5 µg/mL
[1]; MSSA isolate 1663, 03MAR06
  MIC: 1 µg/mL
[1]; MSSA isolate 1666, 03MAR06
  MIC: 0.5 µg/mL
[1]; MSSA isolate 1667, 03MAR06
  MIC: 1 µg/mL
[1]; MSSA isolate 1668, 03MAR06
  MIC: 0.5 µg/mL
[1]; MSSA isolate 1671, 03MAR06
  MIC: 0.5 µg/mL
[1]; MSSA isolate 1728, 03MAR06
  MIC: 0.25 µg/mL
[1]; MSSA isolate 1728, retest 09MAR06
  MIC: 0.25 µg/mL
[1]; [6]
  MIC50: 0.5 µg/mL
  MIC90: 0.5 µg/mL
[2]; VISE isolate 2020, 09MAR06
  MIC: > 16 µg/mL
[2]; VISE isolate 2021, 09MAR06
  MIC: 0.25 µg/mL
[2]; VISE isolate 2022, 03MAR06
  MIC: 2 µg/mL
[2]; VISE isolate 2023, 03MAR06
  MIC: 0.5 µg/mL
[2]; 4 VISE isolates, combinations at 2.5:1
  MIC50: 0.5 µg/mL
[3]; MRSA isolate 757, 24FEB06
  MIC: > 16 µg/mL
[3]; MRSA isolate 758, 03MAR06
  MIC: 1 µg/mL
[3]; MRSA isolate 758, 24FEB06
  MIC: 0.5 µg/mL
[3]; MRSA isolate 760, 03MAR06
  MIC: 1 µg/mL
[3]; MRSA isolate 760, 24FEB06
  MIC: 0.5 µg/mL
[3]; MRSA isolate 763, 22FEB06
  MIC: 0.5 µg/mL
[3]; MRSA isolate 765, 22FEB06
  MIC: 0.5 µg/mL
[3]; MRSA isolate 766, 22FEB06
  MIC: 1 µg/mL
[3]; MRSA isolate 767, 22FEB06
  MIC: 0.5 µg/mL
[3]; MRSA isolate 768, 22FEB06
  MIC: 0.5 µg/mL
[3]; MRSA isolate 769, 22FEB06
  MIC: > 16 µg/mL
[3]; MRSA isolate 770, 22FEB06
  MIC: 0.5 µg/mL
[3]; MRSA isolate 771, 22FEB06
  MIC: 0.5 µg/mL
[3]; MRSA isolate 772, 22FEB06
  MIC: 0.5 µg/mL
[3]; MRSA isolate 773, 24FEB06
  MIC: 0.5 µg/mL
[3]; MRSA isolate 774, 24FEB06
  MIC: 0.5 µg/mL
[3]; MRSA isolate 775, 24FEB06
  MIC: 0.5 µg/mL
[3]; MRSA isolate 776, 24FEB06
  MIC: 0.5 µg/mL
[3]; MRSA isolate 777, 24FEB06
  MIC: 0.5 µg/mL
[3]; MRSA isolate 778, 24FEB06
  MIC: 0.25 µg/mL
[3]; MRSA isolate 886, 24FEB06
  MIC: 0.5 µg/mL
[3]; MRSA isolate 887, 24FEB06
  MIC: 0.5 µg/mL
[3]; MRSA isolate 888, 24FEB06
  MIC: 0.5 µg/mL
[3]; MRSA isolate 889, 24FEB06
  MIC: 1 µg/mL
[3]; MRSA isolate 1004, 24FEB06
  MIC: 16 µg/mL
[3]; MRSA isolate 1010, 22FEB06
  MIC: 4 µg/mL
[3]; MRSA isolate 1012, 22FEB06
  MIC: 1 µg/mL
[3]; MRSA isolate 1013, 22FEB06
  MIC: 0.5 µg/mL
[3]; MRSA isolate 1014, 22FEB06
  MIC: 0.5 µg/mL
[3]; MRSA isolate 1015, 22FEB06
  MIC: 0.5 µg/mL
[3]; MRSA isolate 1016, 22FEB06
  MIC: 0.5 µg/mL
[3]; MRSA isolate 1017, 22FEB06
  MIC: 0.5 µg/mL
[3]; MRSA isolate 1021, 22FEB06
  MIC: 0.5 µg/mL
[3]; MRSA isolate 1022, 22FEB06
  MIC: 0.5 µg/mL
[3]; MRSA isolate 1023, 22FEB06
  MIC: 0.5 µg/mL
[3]; MRSA isolate 1024, 22FEB06
  MIC: 0.5 µg/mL
[3]; MRSA isolate 1025, 22FEB06
  MIC: 0.5 µg/mL
[3]; MRSA isolate 1135, 22FEB06
  MIC: 0.5 µg/mL
[3]; MRSA isolate 1136, 22FEB06
  MIC: 0.5 µg/mL
[3]; MRSA isolate 1137, 22FEB06
  MIC: 0.5 µg/mL
[3]; MRSA isolate 1138, 22FEB06
  MIC: 1 µg/mL
[3]; MRSA isolate 1222, 03MAR06
  MIC: 0.5 µg/mL
[3]; MRSA isolate 1222, 24FEB06
  MIC: 0.5 µg/mL
[3]; MRSA isolate 1653, 03MAR06
  MIC: 0.25 µg/mL
[3]; MRSA isolate 1658, 03MAR06
  MIC: 0.5 µg/mL
[3]; MRSA isolate 1659, 03MAR06
  MIC: 0.25 µg/mL
[3]; MRSA isolate 1661, 03MAR06
  MIC: 0.5 µg/mL
[3]; MRSA isolate 1729, 03MAR06
  MIC: > 16 µg/mL
[3]; MRSA isolate 1730, 24FEB06
  MIC: 0.5 µg/mL
[3]; MRSA isolate 2009, 24FEB06
  MIC: > 16 µg/mL
[3]; MRSA isolate 2010, 24FEB06
  MIC: 0.5 µg/mL
[3]; MRSA isolate 2011, 24FEB06
  MIC: > 16 µg/mL
[3]; [7]
  MIC50: 0.5 µg/mL
  MIC90: 16 µg/mL
[4]; LRSA isolate 1651, 24FEB06
  MIC: 0.5 µg/mL
[4]; LRSA isolate 1652, 24FEB06
  MIC: 0.5 µg/mL
[4]; LRSA isolate 1725, 24FEB06
  MIC: > 16 µg/mL
[4]; 3 LRSA isolates, combinations at 2.5:1
  MIC50: 0.5 µg/mL
[5]; 3 unconfirmed VISE isolates, combinations at 2.5:1
  MIC Range: 0.5 to 2 µg/mL
[5]; Staphylococcus epidermidis, Unconfirmed VISE isolate 2024, 09MAR06
  MIC: 2 µg/mL
[5]; Staphylococcus epidermidis, Unconfirmed VISE isolate 2025, 09MAR06
  MIC: 0.5 µg/mL
[5]; Staphylococcus epidermidis, Unconfirmed VISE isolate 2026, 03MAR06
  MIC: 2 µg/mL
[5]; Staphylococcus epidermidis, 3 unconfirmed VISE isolates, combinations at 2.5:1
  MIC50: 2 µg/mL
